In brackets after ≈: the same amount, converted by molar mass.
How the values were obtained:
Type in all cases: functional
Details in all cases: time 7-10 day
[1] = test system: Mycobacterium tuberculosis; test: Antitubercular activity against INH/RIF-resistant Mycobacterium tuberculosis clinical isolate M34 assessed as inhibition of bacterial growth incubated for 7 to 10 days by Alamar Blue staining based analysis
[2] = test system: Mycobacterium tuberculosis; test: Antitubercular activity against INH/RIF-resistant Mycobacterium tuberculosis clinical isolate M7 assessed as inhibition of bacterial growth incubated for 7 to 10 days by Alamar Blue staining based analysis
[3] = test system: Mycobacterium tuberculosis; test: Antitubercular activity against INH/RIF-resistant Mycobacterium tuberculosis clinical isolate M6 assessed as inhibition of bacterial growth incubated for 7 to 10 days by Alamar Blue staining based analysis
[4] = test system: Mycobacterium tuberculosis; test: Antitubercular activity against INH/RIF-resistant Mycobacterium tuberculosis clinical isolate M15 assessed as inhibition of bacterial growth incubated for 7 to 10 days by Alamar Blue staining based analysis

| SMILES | MIC [1] [µg/mL] | MIC [2] [µg/mL] | MIC [3] [µg/mL] | MIC [4] [µg/mL] |
| --- | --- | --- | --- | --- |
| CO[C@H]1/C=C/O[C@@]2(C)Oc3c(C)c(O)c4c(O)c(c(/C=N/N5CCN(C)CC5)c(O)c4c3C2=O)NC(=O)/C(C)=C\C=C\[C@H](C)[C@H](O)[C@@H](C)[C@@H](O)[C@@H](C)[C@H](OC(C)=O)[C@@H]1C [RIFAMPIN] | 16 (≈ 19.4 µM) | 8 (≈ 9.72 µM) | 16 (≈ 19.4 µM) | > 64 |
| NNC(=O)c1ccncc1 [ISONIAZID] | 8 (≈ 58.3 µM) | 8 (≈ 58.3 µM) | 8 (≈ 58.3 µM) | 4 (≈ 29.2 µM) |
| CC1(C)c2c[nH]c3cccc(c23)S[C@H]1C(=O)O | 25 (≈ 101 µM) | 25 (≈ 101 µM) | 12.5 (≈ 50.5 µM) | 12.5 (≈ 50.5 µM) |
| O=C(O)[C@H]1Cc2c[nH]c3cccc(c23)S1 | 0.78 (≈ 3.56 µM) | 0.78 (≈ 3.56 µM) | 0.78 (≈ 3.56 µM) | 0.78 (≈ 3.56 µM) |
| C[C@H]1c2c[nH]c3cccc(c23)S[C@H]1C(=O)O [CHUANGXINMYCIN] | 3.12 (≈ 13.4 µM) | 0.78 (≈ 3.34 µM) | 0.78 (≈ 3.34 µM) | 1.56 (≈ 6.69 µM) |
